Several values for one entry are separate records, joined by “and”; a condition that tells them apart may be missing. Equal values may be shown once. Read-outs that look alike come from different tables or passages of the source.
Assays:
[1] = system: previously described examples of α-GPO; settings: prior art enzymes; read-out: Km values for L-α-glycerol-3-phosphate; cited from earlier work
[2] = system: α-GPO from P. freudenreichii subsp. freudenreichii (NCIMB 5959); assay: α-GPO assay (Trinder-type H2O2 colour reaction); assay type: biochemical; settings: read-out: Km for L-α-glycerol-3-phosphate
[3] = system: α-GPO from P. freudenreichii subsp. shermanii (formerly P. shermanii) (NCIMB 9885); assay: α-GPO assay (Trinder-type H2O2 colour reaction); assay type: biochemical, P. freudenreichii subsp. shermanii (NCIMB 9885); settings: cell-free extract, read-out: Km of the α-GPO for L-α-glycerol-3-phosphate
Description: (§1) Freeze-dried cultures of `P. acidi-propionici`(formerly `arabinosum`) NCIMB 5958) and `P. freudenreichii` subsp. `shermanii`(formerly `P. shermanii`) (NCIMB 9885) were obtained from the National Collection of Industrial and Marine Bacteria, Torry Research Station, Aberdeen, Scotland. The organisms were grown in a similar manner to that described above for `P. freudenreichii` subsp. `freudenriechii` (DSM 20270). The microorganisms were harvested, disrupted and assayed for α-GPO again in a similar way to `P. `freudenreichii` subsp. `freudenreichii` (DSM 20270).

[4] = system: α-glycerol-3-phosphate oxidase (α-GPO) from Propionibacterium freudenreichii subsp. freudenreichii (DSM 20270); assay: α-GPO assay (Trinder-type H2O2 colour reaction, 505nm, 37° C.); assay type: biochemical
Description: Aliquots of the resulting supernatant containing partially purified α-GPO were used in the following test system: […]
L-α-glycerol-3-phosphate
4-amino-antipyrine 1.5 mM
Dimethylglutarate buffer (DMG; pH 7.5)
The rate of change of absorbance was measured at 505nm, 37° C. in a spectrophotometer.

[5] = system: α-GPO from P. acidi-propionici (formerly arabinosum) (NCIMB 5958); assay: α-GPO assay (Trinder-type H2O2 colour reaction); assay type: biochemical, P. acidi-propionici (NCIMB 5958); settings: cell-free extract, read-out: Km of the α-GPO for L-α-glycerol-3-phosphate
Description: as §1

[6] = system: α-GPO from P. freudenreichii subsp. shermanii (NCIMB 5964); assay: α-GPO assay (Trinder-type H2O2 colour reaction); assay type: biochemical; settings: read-out: Km for L-α-glycerol-3-phosphate
[7] = listed as L-α0glycerol-3-phosphate

Compound: O=P(O)(O)OC[C@H](O)CO [L-α-glycerol-3-phosphate]
- Km [1]: ≥ 2500 µM
- Km [2]: 26 µM and ~26 µM
- Km [3, 7]: 22 µM
- Km [3]: ~22 µM
- Km ([4]; characterisation of the preferred enzyme, read-out: Michaelis-Menten constant (Km) in respect of L-α-glycerol-3-phosphate): 15 µM
- Km ([4]; high speed centrifugation supernatant, DMG pH 7.5, 37° C., 505nm, read-out: Km of the α-GPO for its substrate, L-α-glycerol-3-phosphate): 15 µM
- Km ([4]; pooled active fractions after Sephadex G-200 gel filtration, read-out: Km of the α-GPO for its substrate L-α-glycerol-3-phosphate): 15 µM
- Km ([4]; read-out: Km for L-α-glycerol-3-phosphate): 15 µM and ~15 µM
- fold lower Km value than previously described α-GPO ([4]; versus Km of 2.5mM or greater of previously described α-GPO): 170 fold
- Km [5, 7]: 18 µM
- Km [5]: ~18 µM
- Km [6]: 6 µM and ~6 µM
